# Data published in patent publication US20240366729A1, “COMBINATION OF A NURR1 AGONIST WITH AT LEAST ONE OF AN ALDOSTERONE ANTAGONIST, AN INSULIN MODULATOR AND A SULFONYLUREA” (GENESIS PHARMA SA, priority 2021, published 2024).
# Entries after “also recorded” stand apart in the source; their conditions may differ.
# Columns and labels:
# [1] = system: rat model of transient middle cerebral artery occlusion (t-MCAO); assay: Neurological score (NSS), rat t-MCAO model, 7-day treatment (Example 2); assay type: in vivo; conditions: for Neurological score (NSS) vs vehicle: Day 1 and Day 8
# Protocol: The study was performed in cycles, each one containing at least nine rats. Test compounds were administrated 20 minutes before reperfusion and twice a day thereafter. On Day 1, stroke was induced by the t-MCAO procedure. Neurological score (NSS), was performed before surgery, 24 hours and 7 days after t-MCAO. At study termination brains were harvested, sliced into five 2 mm thick coronal sections and stained with TTC for infarct size measurement. The experimental design and timeline for the two parts of the study are presented below.
# The right Common Carotid artery (CCA) was exposed through a midline neck incision and carefully dissected free from surrounding nerves and fascia—from its bifurcation to the base of the skull. The Occipital artery branches of the External Carotid artery (ECA) were isolated, and these branches were dissected and coagulated. The ECA was dissected further distally and coagulated along with the terminal lingual and maxillary artery branches, just before their bifurcation. The Internal Carotid artery (ICA) was isolated and carefully separated from the adjacent Vagus nerve, and the Pterygopalatine artery was ligated close to its origin with a 5-0 nylon suture. […] The surgical wound was closed and the animals were returned to their cages to recover from anesthesia. One hour and half after occlusion rats were re-anesthetized and monofilament was withdrawn to allow reperfusion. The surgical wound was closed and rats were returned to their cages. Following surgery, animals were placed on a heating pad until their recovery from the anesthesia. All animals received subcutaneous Meloxicam at 2 mg/kg before and after surgery, daily during the next two days. They were observed frequently on the day of t-MCAO surgery and at least once daily thereafter.
# Treatment was start 20 minutes before reperfusion and then at the end of the same day, via IP administration of the test compounds. Treatment continued twice a day for six consecutive days thereafter.
# Neuroscore was graded on a scale of 0 to 18 (in which normal score is 0 and maximal deficit score is represented by 18).
# Nurr1 = Nurr1 (Homo sapiens, UniProt P43354); conditions: through physical interaction with its ligand binding domain (LBD); cited from earlier work
# Nurr1, sequence (P43354 whole entry, species assumed, the tested form may be a part): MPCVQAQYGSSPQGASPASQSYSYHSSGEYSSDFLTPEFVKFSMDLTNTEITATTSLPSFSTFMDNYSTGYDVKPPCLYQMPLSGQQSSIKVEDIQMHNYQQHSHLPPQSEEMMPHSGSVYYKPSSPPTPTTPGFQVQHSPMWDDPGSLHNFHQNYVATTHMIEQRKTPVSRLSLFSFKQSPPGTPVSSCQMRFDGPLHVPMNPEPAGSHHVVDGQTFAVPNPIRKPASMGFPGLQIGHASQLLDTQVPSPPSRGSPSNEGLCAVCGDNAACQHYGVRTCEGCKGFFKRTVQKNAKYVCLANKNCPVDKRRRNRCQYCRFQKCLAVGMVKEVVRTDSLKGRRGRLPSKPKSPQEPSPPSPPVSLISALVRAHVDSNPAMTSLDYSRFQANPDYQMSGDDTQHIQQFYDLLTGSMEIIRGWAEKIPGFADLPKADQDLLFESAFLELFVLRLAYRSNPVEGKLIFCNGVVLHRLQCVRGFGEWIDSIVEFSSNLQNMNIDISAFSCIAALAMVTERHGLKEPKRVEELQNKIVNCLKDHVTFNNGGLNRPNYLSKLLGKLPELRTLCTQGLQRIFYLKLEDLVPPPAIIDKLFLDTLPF
# [2] = system: rat superior mesenteric arteries; conditions: cited from earlier work
# [3] = system: mouse model of intracerebral haemorrhage (ICH); conditions: 40 mg/kg, cited from earlier work
# [4] = system: rodent models of brain ischemia and reperfusion injury; conditions: 1 mg/kg administered 10 min before reperfusion; cited from earlier work
# [5] = system: rodent models of subarachnoid hemorrhage; conditions: loading dose 10 μg/kg intraperitoneally, then infusion 200 ng/hr for 24 hours or one week; cited from earlier work
# [6] = system: rat thromboembolic model of stroke; conditions: continuous infusion 75 ng/h; 7 days post middle cerebral artery occlusion; cited from earlier work
# [7] = system: experimental intracerebral hemorrhage in mice; conditions: 10 μg either before or at 2 h after hemorrhage; cited from earlier work
# [8] = system: collagenase-induced intracerebral hemorrhage; conditions: 10 μg/kg loading dose followed by 200 ng/h for up to 7 days; cited from earlier work
# [9] = system: patients with large hemispheric infarctions; conditions: intravenous 0.13 mg bolus, 0.16 mg/h for 6 h, then 0.11 mg/h for 66 h; cited from earlier work
# [10] = system: patients with acute hemispheric infarction; conditions: oral administration; cited from earlier work
# [11] = system: rat model of stroke (middle cerebral artery occlusion); conditions: 10 μg/kg IP loading dose plus 200 ng/h subcutaneous infusion beginning 4.5 h or 10 h after onset of ischemia; cited from earlier work
# [12] = system: rat model of transient middle cerebral artery occlusion (t-MCAO); assay: Brain infarct size (TTC staining, ImageJ), rat t-MCAO model, Example 2; assay type: in vivo; conditions: at termination; amodiaquine 0.5 mg/kg, potassium canrenoate 0.33 mg/kg, glibenclamide 1 μg/kg, exenatide 0.05 μg/kg; vehicle 38%
structure (smiles),measurement,setting,value
"CCN(CC)Cc1cc(Nc2ccnc3cc(Cl)ccc23)ccc1O [Amodiaquine, 4-[(7-chloroquinolin-4-yl)amino]-2[(diethylamino)methyl]-phenol]",Neurological score (NSS) vs vehicle,"[1]; amodiaquine 0.5 mg/kg (Group 5M), 20 min before reperfusion and twice a day",Statistically significant differences; also recorded: statistically significant NSS improvement
same,Neurological score (NSS) vs vehicle,"[1]; amodiaquine 7 mg/kg (Group 3M), 20 min before reperfusion and twice a day",Statistically significant differences; also recorded: statistically significant NSS improvement
same,Neurological score (NSS) vs vehicle,"[1]; amodiaquine 20 mg/kg (Group 2M), 20 min before reperfusion and twice a day",Statistically significant differences; also recorded: statistically significant NSS improvement
same,"Neurological score (NSS) vs vehicle, monotherapy at different doses",[1]; amodiaquine 0.5-20 mg/kg,improved significantly and dose dependently the neurological score
same,Transcriptional function of Nurr1,Nurr1,stimulate the transcriptional function of Nurr1
same,Vasorelaxation,[2],induce vasorelaxation
same,Perihematomal activation of microglia/macrophages and astrocytes,[3]; i.p. daily from 3 h after ICH induction,diminished perihematomal activation of microglia/macrophages and astrocytes
same,"ICH-induced mRNA expression of IL-1β, CCL2 and CXCL2",[3]; i.p. daily,"suppressed ICH-induced mRNA expression of IL-1β, CCL2 and CXCL2"
same,Motor dysfunction,[3]; i.p. daily,ameliorated motor dysfunction
"COc1ccc(Cl)cc1C(=O)NCCc1ccc(S(=O)(=O)NC(=O)NC2CCCCC2)cc1 [Glibenclamide, 5-chloro-N-[2-[4-(cyclohexylcarbamoyl-sulfamoyl)phenyl]ethyl]-2-methoxybenzamide]",Efficacy in brain ischemia and reperfusion injury,[4],effective
same,Efficacy in subarachnoid hemorrhage,[5],effective
same,"Reduction of cerebral edema, infarct volume and mortality",[6],50%
same,"Cerebral edema, BBB disruption and neurological deficit",[7],"alleviate cerebral edema, disrupted BBB, and neurological deficit"
same,Efficacy in collagenase intracerebral hemorrhage,[8],not effective
same,"Brain swelling (midline shift), MMP-9, functional outcomes and mortality",[9],promising findings
same,6-month functional outcome,[10],did not substantially improve 6-month functional outcome
same,Safety of treatment,[10],safe
same,"Hemispheric swelling, mortality and Garcia scores",[11],significantly reduced hemispheric swelling at 24 h and 48-h mortality and improved Garcia scores at 48 h
"C[C@]12CCC(=O)C=C1C=C[C@@H]1[C@@H]2CC[C@@]2(C)[C@H]1CC[C@@]2(O)CCC(=O)[O-].[K+] [Potassium canrenoate, potassium 3-[(8R,9S,10R,13S,14S,17R)-17-hydroxy-10,13-dimethyl-3-oxo-2,8,9,11,12,14,15,16-octahydro-1H-cyclopenta[a]phenanthren-17-yl]propanoate]","Neurological score (NSS) vs vehicle, Part II","[1]; Day 1, amodiaquine 0.5 mg/kg, potassium canrenoate 0.33 mg/kg, glibenclamide 1 μg/kg, exenatide 0.05 μg/kg, 20 min before reperfusion and twice a day",Statistically significant differences
same,"Brain infarct size vs vehicle, Part II",[12],Statistically significant differences in infarct size; also recorded: Less prominent decrease in infarct volume
CCN(CC)CCCC(C)Nc1ccnc2cc(Cl)ccc12 (stereo not drawn) [chloroquine],Transcriptional function of Nurr1,Nurr1,stimulate the transcriptional function of Nurr1
